Assay results from PMC10838953.

Tests used:
SBK1 = SBK1 (Homo sapiens, UniProt Q52WX2); assay: biochemical; details: read-out: %Ctrl @ 2000nM
[1] = biological target: ABL1(T315I)-nonphosphorylated (Homo sapiens, UniProt P00519, T315I); assay: biochemical; details: read-out: %Ctrl @ 2000nM
PARP = details: 786-O cells; 2.5-15 μM; 48 h
STK35 = STK35 (Homo sapiens, UniProt Q8TDR2); assay: biochemical; details: read-out: %Ctrl @ 2000nM
VRK2 = VRK2 (Homo sapiens, UniProt Q86Y07); assay: biochemical; details: read-out: %Ctrl @ 2000nM
ADCK3 = ADCK3 (Homo sapiens, UniProt Q8NI60); assay: biochemical; details: read-out: %Ctrl @ 2000nM
CASK = CASK (Homo sapiens, UniProt O14936); assay: biochemical; details: read-out: %Ctrl @ 2000nM
ACVR1B = ACVR1B (Homo sapiens, UniProt P36896); assay: biochemical; details: read-out: %Ctrl @ 2000nM
CAMK1G = CAMK1G (Homo sapiens, UniProt Q96NX5); assay: biochemical; details: read-out: %Ctrl @ 2000nM
[2] = biological target: ABL1(T315I)-phosphorylated (Homo sapiens, UniProt P00519, T315I); assay: biochemical; details: read-out: %Ctrl @ 2000nM
KIT(L576P) = KIT(L576P) (Homo sapiens, UniProt P10721, L576P); assay: biochemical; details: read-out: %Ctrl @ 2000nM
TRKC = TRKC (Homo sapiens, UniProt Q16288); assay: biochemical; details: read-out: %Ctrl @ 2000nM
PIK3CB = PIK3CB (Homo sapiens, UniProt P42338); assay: biochemical; details: read-out: %Ctrl @ 2000nM
PAK3 = PAK3 (Homo sapiens, UniProt O75914); assay: biochemical; details: read-out: %Ctrl @ 2000nM
NEK2 = NEK2 (Homo sapiens, UniProt P51955); assay: biochemical; details: read-out: %Ctrl @ 2000nM
FLT3(D835Y) = FLT3(D835Y) (Homo sapiens, UniProt P36888, D835Y); assay: biochemical; details: read-out: %Ctrl @ 2000nM
EPHA7 = EPHA7 (Homo sapiens, UniProt Q15375); assay: biochemical; details: read-out: %Ctrl @ 2000nM
TIE1 = TIE1 (Homo sapiens, UniProt P35590); assay: biochemical; details: read-out: %Ctrl @ 2000nM
CSK = CSK (Homo sapiens, UniProt P41240); assay: biochemical; details: read-out: %Ctrl @ 2000nM
IKK-epsilon = IKK-epsilon (Homo sapiens, UniProt Q14164); assay: biochemical; details: read-out: %Ctrl @ 2000nM
PHKG2 = PHKG2 (Homo sapiens, UniProt P15735); assay: biochemical; details: read-out: %Ctrl @ 2000nM
EPHB6 = EPHB6 (Homo sapiens, UniProt O15197); assay: biochemical; details: read-out: %Ctrl @ 2000nM
S6K1 = S6K1 (Homo sapiens, UniProt P23443); assay: biochemical; details: read-out: %Ctrl @ 2000nM
PRKD2 = PRKD2 (Homo sapiens, UniProt Q9BZL6); assay: biochemical; details: read-out: %Ctrl @ 2000nM
LCK = LCK (Homo sapiens, UniProt P06239); assay: biochemical; details: read-out: %Ctrl @ 2000nM
CDKL1 = CDKL1 (Homo sapiens, UniProt Q00532); assay: biochemical; details: read-out: %Ctrl @ 2000nM
BLK = BLK (Homo sapiens, UniProt P51451); assay: biochemical; details: read-out: %Ctrl @ 2000nM
[3] = biological target: JAK1(JH2domain-pseudokinase) (Homo sapiens, UniProt P23458); assay: biochemical; details: read-out: %Ctrl @ 2000nM
AKT1 = AKT1 (Homo sapiens, UniProt P31749); assay: biochemical; details: read-out: %Ctrl @ 2000nM
PIM2 = PIM2 (Homo sapiens, UniProt Q9P1W9); assay: biochemical; details: read-out: %Ctrl @ 2000nM
ACVRL1 = ACVRL1 (Homo sapiens, UniProt P37023); assay: biochemical; details: read-out: %Ctrl @ 2000nM
EGFR(T790M) = EGFR(T790M) (Homo sapiens, UniProt P00533, T790M); assay: biochemical; details: read-out: %Ctrl @ 2000nM
RIOK2 = RIOK2 (Homo sapiens, UniProt Q9BVS4); assay: biochemical; details: read-out: %Ctrl @ 2000nM
MAST1 = MAST1 (Homo sapiens, UniProt Q9Y2H9); assay: biochemical; details: read-out: %Ctrl @ 2000nM
MYLK2 = MYLK2 (Homo sapiens, UniProt Q9H1R3); assay: biochemical; details: read-out: %Ctrl @ 2000nM
ITK = ITK (Homo sapiens, UniProt Q08881); assay: biochemical; details: read-out: %Ctrl @ 2000nM
PRKG1 = PRKG1 (Homo sapiens, UniProt Q13976); assay: biochemical; details: read-out: %Ctrl @ 2000nM
CAMK1B = CAMK1B (Homo sapiens, UniProt Q6P2M8); assay: biochemical; details: read-out: %Ctrl @ 2000nM
PAK6 = PAK6 (Homo sapiens, UniProt Q9NQU5); assay: biochemical; details: read-out: %Ctrl @ 2000nM
ZAK = ZAK (Homo sapiens, UniProt Q9NYL2); assay: biochemical; details: read-out: %Ctrl @ 2000nM
TSSK3 = TSSK3 (Homo sapiens, UniProt Q96PN8); assay: biochemical; details: read-out: %Ctrl @ 2000nM
PFPK5(P.falciparum) = PFPK5(P.falciparum) (Plasmodium falciparum, UniProt P61075); assay: biochemical; details: read-out: %Ctrl @ 2000nM

Chain of ACVRL1 (P37023 22-503): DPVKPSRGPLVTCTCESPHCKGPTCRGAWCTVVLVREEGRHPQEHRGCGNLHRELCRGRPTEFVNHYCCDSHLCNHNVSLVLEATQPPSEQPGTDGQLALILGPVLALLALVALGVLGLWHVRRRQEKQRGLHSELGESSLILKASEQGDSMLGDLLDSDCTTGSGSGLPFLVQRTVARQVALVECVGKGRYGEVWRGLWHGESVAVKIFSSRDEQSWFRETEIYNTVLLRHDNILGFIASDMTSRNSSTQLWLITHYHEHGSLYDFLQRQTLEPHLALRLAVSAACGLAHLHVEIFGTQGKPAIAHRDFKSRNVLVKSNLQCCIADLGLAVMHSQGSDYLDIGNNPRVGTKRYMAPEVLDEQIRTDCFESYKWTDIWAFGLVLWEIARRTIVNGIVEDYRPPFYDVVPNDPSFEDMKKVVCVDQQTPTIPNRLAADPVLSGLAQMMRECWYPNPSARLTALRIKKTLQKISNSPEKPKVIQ
Chain of ITK (Q08881 whole entry): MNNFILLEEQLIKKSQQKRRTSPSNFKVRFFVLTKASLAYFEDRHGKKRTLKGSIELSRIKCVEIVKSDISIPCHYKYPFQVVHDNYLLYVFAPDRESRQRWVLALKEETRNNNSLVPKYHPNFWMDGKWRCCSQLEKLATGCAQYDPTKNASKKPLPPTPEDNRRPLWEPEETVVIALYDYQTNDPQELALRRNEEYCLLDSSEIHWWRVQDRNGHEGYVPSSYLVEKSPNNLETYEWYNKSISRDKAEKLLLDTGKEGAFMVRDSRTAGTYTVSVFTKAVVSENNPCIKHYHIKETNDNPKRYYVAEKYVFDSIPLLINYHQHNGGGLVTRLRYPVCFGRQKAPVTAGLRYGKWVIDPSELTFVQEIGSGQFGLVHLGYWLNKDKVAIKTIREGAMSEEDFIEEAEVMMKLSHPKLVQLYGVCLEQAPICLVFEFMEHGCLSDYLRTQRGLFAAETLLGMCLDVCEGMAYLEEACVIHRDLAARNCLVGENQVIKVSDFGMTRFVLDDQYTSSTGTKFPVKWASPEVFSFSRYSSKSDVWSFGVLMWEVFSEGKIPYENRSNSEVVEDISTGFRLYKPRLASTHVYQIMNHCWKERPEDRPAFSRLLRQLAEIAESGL
Chain of KIT(L576P) (P10721 26-976 L576P): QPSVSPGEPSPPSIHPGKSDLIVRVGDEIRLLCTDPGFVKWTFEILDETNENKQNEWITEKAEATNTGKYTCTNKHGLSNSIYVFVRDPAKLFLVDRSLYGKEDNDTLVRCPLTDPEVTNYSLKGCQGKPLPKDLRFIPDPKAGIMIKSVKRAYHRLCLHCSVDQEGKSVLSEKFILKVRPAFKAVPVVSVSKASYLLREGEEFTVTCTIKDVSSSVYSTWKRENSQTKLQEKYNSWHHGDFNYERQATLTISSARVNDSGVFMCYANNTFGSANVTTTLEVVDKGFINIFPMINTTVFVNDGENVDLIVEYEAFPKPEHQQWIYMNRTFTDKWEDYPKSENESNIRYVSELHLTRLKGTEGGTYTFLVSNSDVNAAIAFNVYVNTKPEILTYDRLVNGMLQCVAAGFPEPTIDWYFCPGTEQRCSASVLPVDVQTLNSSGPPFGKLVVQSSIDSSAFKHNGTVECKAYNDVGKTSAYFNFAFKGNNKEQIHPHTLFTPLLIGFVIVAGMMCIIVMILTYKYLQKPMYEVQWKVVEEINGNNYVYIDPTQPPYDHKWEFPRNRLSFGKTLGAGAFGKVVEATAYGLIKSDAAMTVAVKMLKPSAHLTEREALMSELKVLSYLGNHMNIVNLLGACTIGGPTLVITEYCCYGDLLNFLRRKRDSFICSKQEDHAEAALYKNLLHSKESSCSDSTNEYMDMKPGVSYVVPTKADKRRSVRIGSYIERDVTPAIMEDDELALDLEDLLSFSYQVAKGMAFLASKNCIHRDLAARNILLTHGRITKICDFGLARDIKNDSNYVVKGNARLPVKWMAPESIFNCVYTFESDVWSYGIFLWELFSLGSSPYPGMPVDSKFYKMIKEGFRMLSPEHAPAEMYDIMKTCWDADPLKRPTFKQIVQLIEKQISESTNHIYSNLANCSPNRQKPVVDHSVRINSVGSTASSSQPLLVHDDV
Chain of MYLK2 (Q9H1R3 whole entry): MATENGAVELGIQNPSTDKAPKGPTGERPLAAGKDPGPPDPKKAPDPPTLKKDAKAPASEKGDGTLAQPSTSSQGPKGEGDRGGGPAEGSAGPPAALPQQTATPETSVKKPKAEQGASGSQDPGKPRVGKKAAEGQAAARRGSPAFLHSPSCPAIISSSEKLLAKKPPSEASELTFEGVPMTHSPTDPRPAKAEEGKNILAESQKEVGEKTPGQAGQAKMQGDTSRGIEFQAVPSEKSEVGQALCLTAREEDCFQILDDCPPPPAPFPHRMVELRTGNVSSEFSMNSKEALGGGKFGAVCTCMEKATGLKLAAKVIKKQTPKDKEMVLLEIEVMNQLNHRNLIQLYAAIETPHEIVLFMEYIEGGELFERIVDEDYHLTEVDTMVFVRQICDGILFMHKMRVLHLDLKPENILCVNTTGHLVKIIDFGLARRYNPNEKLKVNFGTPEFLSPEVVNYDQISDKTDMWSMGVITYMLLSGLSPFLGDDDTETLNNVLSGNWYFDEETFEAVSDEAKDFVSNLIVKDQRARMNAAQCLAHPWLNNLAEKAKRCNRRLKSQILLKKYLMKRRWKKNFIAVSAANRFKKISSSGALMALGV
Chain of EPHA7 (Q15375 28-998): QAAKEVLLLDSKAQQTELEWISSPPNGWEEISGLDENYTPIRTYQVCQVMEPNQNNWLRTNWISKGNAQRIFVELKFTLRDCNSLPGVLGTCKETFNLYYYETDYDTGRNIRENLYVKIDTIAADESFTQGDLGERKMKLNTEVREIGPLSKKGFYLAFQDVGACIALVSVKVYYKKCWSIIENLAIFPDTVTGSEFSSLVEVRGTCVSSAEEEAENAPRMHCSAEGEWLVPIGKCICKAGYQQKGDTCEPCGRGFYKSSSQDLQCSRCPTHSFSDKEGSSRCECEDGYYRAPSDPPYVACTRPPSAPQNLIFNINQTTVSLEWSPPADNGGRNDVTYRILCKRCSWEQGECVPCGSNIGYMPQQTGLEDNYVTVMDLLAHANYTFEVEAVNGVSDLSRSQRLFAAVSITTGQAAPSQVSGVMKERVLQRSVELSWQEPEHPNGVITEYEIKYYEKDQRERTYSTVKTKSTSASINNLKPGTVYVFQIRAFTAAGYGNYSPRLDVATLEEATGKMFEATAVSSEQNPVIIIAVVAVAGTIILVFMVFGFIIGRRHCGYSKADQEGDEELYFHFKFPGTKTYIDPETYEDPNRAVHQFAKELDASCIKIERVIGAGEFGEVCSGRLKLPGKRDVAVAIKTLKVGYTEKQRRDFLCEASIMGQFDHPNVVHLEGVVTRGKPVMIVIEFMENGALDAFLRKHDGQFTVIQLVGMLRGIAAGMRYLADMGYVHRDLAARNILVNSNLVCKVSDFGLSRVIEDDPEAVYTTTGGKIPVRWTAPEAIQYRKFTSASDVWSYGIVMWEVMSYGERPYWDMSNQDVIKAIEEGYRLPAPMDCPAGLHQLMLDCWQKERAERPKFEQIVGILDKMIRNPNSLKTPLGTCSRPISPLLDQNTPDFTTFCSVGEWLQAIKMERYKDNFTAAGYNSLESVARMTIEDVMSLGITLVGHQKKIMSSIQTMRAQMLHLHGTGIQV
Chain of PAK6 (Q9NQU5 whole entry): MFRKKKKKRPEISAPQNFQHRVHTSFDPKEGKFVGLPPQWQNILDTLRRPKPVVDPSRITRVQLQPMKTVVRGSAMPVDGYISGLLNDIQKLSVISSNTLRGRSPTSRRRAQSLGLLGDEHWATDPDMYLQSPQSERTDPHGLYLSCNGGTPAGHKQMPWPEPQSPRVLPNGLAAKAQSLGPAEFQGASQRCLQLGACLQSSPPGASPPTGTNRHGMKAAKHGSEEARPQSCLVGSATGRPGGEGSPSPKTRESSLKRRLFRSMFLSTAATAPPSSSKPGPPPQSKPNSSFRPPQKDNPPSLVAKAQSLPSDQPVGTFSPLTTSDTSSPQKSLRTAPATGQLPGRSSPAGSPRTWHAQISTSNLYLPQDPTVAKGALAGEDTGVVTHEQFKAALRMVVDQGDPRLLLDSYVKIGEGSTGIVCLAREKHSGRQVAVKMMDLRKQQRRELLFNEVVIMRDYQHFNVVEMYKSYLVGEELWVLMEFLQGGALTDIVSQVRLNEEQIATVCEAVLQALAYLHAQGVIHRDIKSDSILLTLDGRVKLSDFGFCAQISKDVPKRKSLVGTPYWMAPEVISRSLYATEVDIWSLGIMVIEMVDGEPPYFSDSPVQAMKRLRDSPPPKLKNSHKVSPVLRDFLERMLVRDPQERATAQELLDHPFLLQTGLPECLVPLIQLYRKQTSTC
Chain of ACVR1B (P36896 24-505): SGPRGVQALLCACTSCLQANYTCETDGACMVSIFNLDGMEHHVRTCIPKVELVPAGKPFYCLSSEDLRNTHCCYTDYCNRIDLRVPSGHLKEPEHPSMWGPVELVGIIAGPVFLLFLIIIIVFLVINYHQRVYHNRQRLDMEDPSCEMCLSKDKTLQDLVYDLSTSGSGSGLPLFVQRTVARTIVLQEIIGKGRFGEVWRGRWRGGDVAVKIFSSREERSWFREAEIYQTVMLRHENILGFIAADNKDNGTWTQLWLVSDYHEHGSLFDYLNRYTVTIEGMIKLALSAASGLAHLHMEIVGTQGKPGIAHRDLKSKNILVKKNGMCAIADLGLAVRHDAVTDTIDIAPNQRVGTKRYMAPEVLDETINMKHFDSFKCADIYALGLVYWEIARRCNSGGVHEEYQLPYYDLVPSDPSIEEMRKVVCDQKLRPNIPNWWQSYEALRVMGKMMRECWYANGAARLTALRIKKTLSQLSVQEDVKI
Chain of TSSK3 (Q96PN8 whole entry): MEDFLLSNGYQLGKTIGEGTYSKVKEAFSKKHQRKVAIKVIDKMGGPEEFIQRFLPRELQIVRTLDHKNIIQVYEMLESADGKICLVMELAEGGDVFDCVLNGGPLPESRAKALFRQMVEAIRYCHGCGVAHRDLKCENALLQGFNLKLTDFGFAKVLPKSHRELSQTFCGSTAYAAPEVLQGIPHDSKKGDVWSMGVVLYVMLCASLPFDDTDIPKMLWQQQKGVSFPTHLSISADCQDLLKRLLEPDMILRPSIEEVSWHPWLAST

Q: What does the source list for `CC(C)COC(=O)c1[nH]c2ccc(F)cc2c1-c1cn(CC2CCN(CCNS(=O)(=O)c3ccc(CC(C)C)cc3)CC2)nn1` [AB668, isobutyl 5-fluoro-3-(1-((1-(2-((4-isobutylphenyl)sulfonamido)ethyl)piperidin-4-yl)methyl)-1H-1,2,3-triazol-4-yl)-1H-indole-2-carboxylate]?
A: remaining activity at 2 µM (SBK1): 88%; remaining activity at 2 µM [1]: 64%; cleavage of PARP (PARP): cleavage of PARP; remaining activity at 2 µM (STK35): 89%; remaining activity at 2 µM (VRK2): 78%; remaining activity at 2 µM (ADCK3): 86%; remaining activity at 2 µM (CASK): 97%; remaining activity at 2 µM (ACVR1B): 75%; remaining activity at 2 µM (CAMK1G): 80%; remaining activity at 2 µM [2]: 79%; remaining activity at 2 µM (KIT(L576P)): 91%; remaining activity at 2 µM (TRKC): 100%; remaining activity at 2 µM (PIK3CB): 90%; remaining activity at 2 µM (PAK3): 95%; remaining activity at 2 µM (NEK2): 90%; remaining activity at 2 µM (FLT3(D835Y)): 79%; remaining activity at 2 µM (EPHA7): 93%; remaining activity at 2 µM (TIE1): 89%; remaining activity at 2 µM (CSK): 95%; remaining activity at 2 µM (IKK-epsilon): 76%; remaining activity at 2 µM (PHKG2): 88%; remaining activity at 2 µM (EPHB6): 82%; remaining activity at 2 µM (S6K1): 89%; remaining activity at 2 µM (PRKD2): 88%; remaining activity at 2 µM (LCK): 99%; remaining activity at 2 µM (CDKL1): 86%; remaining activity at 2 µM (BLK): 100%; remaining activity at 2 µM [3]: 93%; remaining activity at 2 µM (AKT1): 88%; remaining activity at 2 µM (PIM2): 84%; remaining activity at 2 µM (ACVRL1): 90%; Number of Hits S(1) (468 kinases): 2; Number of Hits S(10) (468 kinases): 3; Number of Hits S(35) (468 kinases): 4; remaining activity at 2 µM (EGFR(T790M)): 89%; remaining activity at 2 µM (RIOK2): 73%; remaining activity at 2 µM (MAST1): 100%; remaining activity at 2 µM (MYLK2): 96%; remaining activity at 2 µM (ITK): 93%; remaining activity at 2 µM (PRKG1): 85%; remaining activity at 2 µM (CAMK1B): 100%; remaining activity at 2 µM (PAK6): 90%; remaining activity at 2 µM (ZAK): 100%; remaining activity at 2 µM (TSSK3): 98%; remaining activity at 2 µM (PFPK5(P.falciparum)): 100%
